Reference: article PMC11355573, “A New Renieramycin T Right-Half Analog as a Small Molecule Degrader of STAT3” (Marine Drugs, 2024)

Assays:
[1] = test system: EMT markers (ZO1, Slug, Snail, N-cadherin, Vimentin) in H460 cells; assay: Western blot of EMT markers; assay type: cell-based, human
Description: (§1) EMT is a biological process that is associated with cancer progression and the spread of cancer cells to other parts of the body. This mechanism facilitates the motility of cancer cells, enhances anoikis resistance, and contributes to poor prognosis due to its high metastatic potential. Given the critical role of EMT in the metastasis processes, we firstly investigated EMT markers. Therefore, to validate that DH_31 inhibits metastasis, H460 cells were selected to elucidate the mechanism because of their enhanced migration and invasion behavior [36]. H460 cells were exposed to the non-toxic concentration range of 0–2.5 µM of DH_31 for 24 h. Subsequently, the evaluation of EMT expression levels was carried out through the application of immunofluorescence assay and Western blotting. We further investigated key hallmarks of EMT, specifically the reduction in the expression levels of epithelial marker (ZO1) and the increase in the expression levels of mesenchymal markers (Slug, Snail, ZEB1, N-cadherin, and Vimentin). […] The expressions of Snail, N-cadherin, and Vimentin were reduced in a concentration-dependent manner. […] Furthermore, the results from the Western blot analysis confirmed the findings from immunofluorescence staining (Figure 3C). […] The protein alterations in response to DH_31 were clarified.
(§2) Western blot analysis was performed to detect and quantify specific proteins in a sample. H460 cells (4.0 × 10^5 cells per well) were seeded in 6 well plates. Following overnight incubation, the cells were treated with different concentrations of DH_31 (0–2.5 μM) for 24 h at 37 °C. After treatment, the cell lysates were isolated using a 1 × RIPA buffer containing a protease inhibitor cocktail for 45 min at 4 °C. The protein content was determined using the BCA protein assay kit. For the Western blot assay, an equal amount of the denatured proteins from cell lysates was separated by electrophoresis on 10 or 12% SDS-PAGE and transferred to 0.2 µm polyvinylidene difluoride (PVDF) membranes (Bio-Rad Laboratories, Hercules, CA, USA). After the membranes were blocked with 5% skim milk, they were then incubated overnight with specific primary antibodies at 4 °C. Subsequently, the membranes were incubated with HRP-conjugated secondary antibodies for 1 h at room temperature. Protein bands were visualized using SuperSignal^TM West Pico PLUS Chemiluminescent Substrate. The protein intensity was analyzed using ImageJ™ software (Image J 1.52a, Rasband, W., National Institutes of Health, Bethesda, MD, USA).

STAT3 [2] = molecular target: T1, STAT3 (Homo sapiens, UniProt P40763); assay: STAT3 Western blot; assay type: cell-based; conditions: H460, 1 μM and 2.5 μM, 24 h (p < 0.05)
T1 construct: endogenous in cells; host or cells: NCI-H460 (ATCC HTB-177)
Procedure: These findings imply that DH_31 exerts its anticancer effects by modulating the expression and/or accumulation of STAT3.
as §2

STAT3 [3] = molecular target: T1, STAT3; assay: STAT3 proteasomal degradation, Western blot with or without MG132; assay type: cell-based; conditions: H460, 1 and 2.5 µM, 6 h, without MG132 (p < 0.05)
Procedure: To explore whether the reduction in total STAT3 protein after DH_31 treatments (as shown in Figure 5B–E) occurs at the mRNA or protein levels, we first investigated mRNA levels using Real-time qPCR. […] To evaluate whether DH_31 affects STAT3 stability, pretreatment with MG132, a potent selective proteasome inhibitor, was performed. H460 cells were pretreated with or without MG132 (10 μM) for 1 h and then cells were either treated with DH_31 for 6 h or left untreated. […] The proteasome can recognize and degrade protein targets that are conjugated by single or poly-ubiquitin molecules. To investigate the ubiquitination level of STAT3 with DH_31 treatments, the ubiquitination level was evaluated using immunoprecipitation and Western blot analysis of the STAT3–ubiquitin complex in the lung cancer cells treated with DH_31 and in untreated cells.
Immunoprecipitation assay was performed to investigate ubiquitin–proteasomal degradation, shedding light on the regulatory mechanisms involved. H460 cells (4.0 × 10^5 cells per well) were seeded in 6-well plates. Following overnight incubation, the cells were pretreated with 10 μM of a proteasome inhibitor, MG132, for 1 h to prevent proteasomal degradation, and then were treated with different concentrations of DH_31 (0–2.5 μM) for 6 h. After treatment, the cells were lysed as described above. Immunoprecipitation was carried out using the Dynabeads™ Protein G Immunoprecipitation kit, following the manufacturers’ protocols. The magnetic beads were coated with the rabbit anti-STAT3, then incubated with whole-cell lysate and mixed gently overnight at 4 °C. After washing, the supernatant containing the antibody–antigen complex was used to perform Western blot analysis to detect the ubiquitinated STAT3 protein.

[4] = test system: EMT markers (ZO1, ZEB1, Slug, Snail, N-cadherin, Vimentin) in H460 cells; assay: Immunofluorescence staining of EMT markers; assay type: cell-based, human
Description: as §1
Immunofluorescence staining and confocal microscopy were conducted to visualize the subcellular localization and spatial distribution of specific proteins. H460 cells (1.0 × 10^4 cells per well) were seeded in 96-well plates. Following overnight incubation, the cells were treated with different concentrations of DH_31 (0–2.5 μM) for 24 h at 37 °C. After treatment, the cells were permeabilized with 0.5% Triton-X in PBS for 5 min, followed by the blocking of non-specific proteins with 10% FBS in 0.1% Triton-X PBS for 1 h at room temperature. Subsequently, the cells were exposed to primary antibodies (STAT3, Slug, Snail, Vimentin, N-cadherin, ZO1, and ZEB1) and incubated at 4 °C overnight. The cells were then incubated with Alexa Fluor 488- or 594-conjugated secondary antibodies and Hoechst 33342 for 1 h at room temperature. After washing with PBS, the cells were covered with 50% glycerol. The images were captured by confocal microscopy (Zeiss, Jena, Germany). The fluorescence intensity was measured using ImageJ™ software (Image J 1.52a, Rasband, W., National Institutes of Health, Bethesda, MD, USA).

T1 sequence (P40763 whole entry): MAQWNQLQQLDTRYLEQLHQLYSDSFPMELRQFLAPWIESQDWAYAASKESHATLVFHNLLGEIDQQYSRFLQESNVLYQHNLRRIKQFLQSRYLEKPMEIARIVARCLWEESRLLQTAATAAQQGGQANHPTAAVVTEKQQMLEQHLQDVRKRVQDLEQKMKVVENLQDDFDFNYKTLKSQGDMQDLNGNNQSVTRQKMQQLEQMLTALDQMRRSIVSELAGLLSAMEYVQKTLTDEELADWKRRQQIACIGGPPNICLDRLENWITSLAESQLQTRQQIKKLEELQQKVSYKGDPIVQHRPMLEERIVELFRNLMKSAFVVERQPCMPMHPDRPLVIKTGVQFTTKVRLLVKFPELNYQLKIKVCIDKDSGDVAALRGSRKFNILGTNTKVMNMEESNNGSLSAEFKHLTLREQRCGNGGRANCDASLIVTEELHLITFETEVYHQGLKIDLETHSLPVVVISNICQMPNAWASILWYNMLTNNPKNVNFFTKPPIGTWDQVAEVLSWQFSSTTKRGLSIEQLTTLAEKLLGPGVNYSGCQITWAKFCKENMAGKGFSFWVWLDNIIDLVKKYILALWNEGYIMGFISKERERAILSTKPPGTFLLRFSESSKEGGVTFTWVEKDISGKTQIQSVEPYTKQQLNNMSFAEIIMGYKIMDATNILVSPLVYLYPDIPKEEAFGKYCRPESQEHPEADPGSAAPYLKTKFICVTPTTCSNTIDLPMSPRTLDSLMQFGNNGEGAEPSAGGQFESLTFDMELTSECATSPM

## COc1c(C)cc2c(c1O)[C@@H]1CN(Cc3ccc4ccccc4c3)[C@@H](C#N)[C@H](C2)N1C [DH_31, (1R,4R,5S)-10-hydroxy-9-methoxy-8,11-dimethyl-3-(naphthalen-2-ylmethyl)-1,2,3,4,5,6-hexahydro-1,5-epiminobenzo[d]azocine-4-carbonitrile]
[1]; H460, 1 µM (p < 0.05) and 2.5 µM (p < 0.01), 24 h
  Snail expression (Western blot): reduced
[1]; H460, 2.5 µM, 24 h (p < 0.05)
  N-cadherin expression (Western blot): reductions
  Slug expression (Western blot): reductions
  Vimentin expression (Western blot): reductions
STAT3 [2]
  STAT3 protein level (Western blot): significant decrease
STAT3 [3]
  STAT3 protein levels (Western blot): significantly reduced
[4]; H460, 0–2.5 µM, 24 h
  ZO1 level (immunofluorescence): slightly increased
[4]; H460, 1 μM (p < 0.01) and 2.5 μM (p < 0.001), 24 h
  Vimentin level (immunofluorescence): significant reduction
[4]; H460, 1 μM (p < 0.05) and 2.5 μM (p < 0.001), 24 h
  N-cadherin level (immunofluorescence): significant reduction
[4]; H460, 1 μM and 2.5 μM, 24 h (p < 0.05)
  Snail level (immunofluorescence): significant reduction
[4]; H460, 2.5 µM, 24 h (p < 0.05)
  Slug protein level (immunofluorescence): significant decrease
  ZEB1 protein level (immunofluorescence): significant decrease
